32 compounds from ChEMBL document CHEMBL3875182 (Bioorg Med Chem, 2017) can be followed below.

Where only a bound is given, the exact number is not on record here.

Data set [1] in a line: Cytotoxicity against human HepG2 cells assessed as reduction in cell viability by Alamar blue assay. Format: toxicity, cell-based.
Data set [2] can be described thus: Cytotoxicity against African green monkey Vero cells assessed as reduction in cell viability by Alamar blue assay. It counts as toxicity, cell-based. The following applies: African green monkey (Chlorocebus sabaeus).
Data set [3] in a line: Selectivity index, ratio of IC50 for human HepG2 cells to MIC for Mycobacterium tuberculosis H37Rv ATCC 25618. It counts as toxicity, cell-based. The following applies: read-out: Selectivity Index.
A short description of data set [4]: Selectivity index, ratio of IC50 for African green monkey Vero cells to MIC for Mycobacterium tuberculosis H37Rv ATCC 25618. It counts as toxicity, cell-based. To be noted: read-out: Selectivity Index.
Data set [5] is described as follows: Inhibition of Mycobacterium tuberculosis shikimate dehydrogenase using shikimic acid as substrate in presence of NADP+ by spectrophotometric analysis.
The subject of data set [6] is Mycobacterium tuberculosis. As to the kind of experiment: Antibacterial activity against Mycobacterium tuberculosis H37Rv ATCC 25618 after 8 to 9 days by BacT/Alert MP bottle assay. It counts as functional.

In the case of `Brc1ccc(-c2nnc3n2N=C(c2ccccc2)CS3)cc1`, the 50% inhibitory concentration (IC50) in data set [1] was found to be 235 µM; in data set [2] it was 58.5 µM; in data set [5], 252.5 mg/L. Besides, the selectivity ratio in data set [3] is 350; in data set [4] it was 87.3. This compound also registered a minimum inhibitory concentration (MIC) in data set [6] of 0.67 µM.
In turn, `c1ccc(C2=Nn3c(Cc4ccc5ccccc5c4)nnc3SC2)cc1` gave a minimum inhibitory concentration (MIC) in data set [6] of over 8 mg/L.
Regarding `Fc1ccc(-c2nnc3sc(COc4ccccc4)nn23)cc1`, the 50% inhibitory concentration (IC50) in data set [1] is 46.6 µM; in data set [2], 71 µM; in data set [5], 23 mg/L. Also, the selectivity ratio came out at 1.9 in data set [3] and 2.9 in data set [4]. This compound also registered an MIC in data set [6] of 24.5 µM.
Compound `c1ccc(C2=Nn3c(nnc3-c3ccncc3)SC2)cc1` showed a minimal inhibitory concentration (MIC) in data set [6] of 8 mg/L.
`COc1ccc(C2=Nn3c(nnc3-c3ccncc3F)SC2)cc1`: it took 8 mg/L to inhibit growth in data set [6] (MIC).
`O=[N+]([O-])c1ccc(C2=Nn3c(nnc3-c3ccccc3)SC2)cc1` showed an MIC in data set [6] of over 8 mg/L.
For `Fc1ccc(C2=Nn3c(nnc3-c3ccncc3)SC2)cc1`, the MIC in data set [6] was over 8 mg/L.
In data set [6], `COc1ccc(-c2nnc3n2N=C(c2ccccc2)CS3)cc1` registered an MIC of over 8 mg/L.
As to `O=[N+]([O-])c1ccc(C2=Nn3c(Cc4ccc5ccccc5c4)nnc3SC2)cc1`, the IC50 turned out to be 72.6 µM in data set [1], 69.7 µM in data set [2] and 11.68 mg/L in data set [5]. Also, the selectivity ratio in data set [3] turned out to be 7.29; in data set [4] it was 7.01. The same compound displayed a minimal inhibitory concentration (MIC) in data set [6] of 9.95 µM.
For `COc1ccc(C2=Nn3c(nnc3-c3ccncc3)SC2)cc1`, in data set [5], the 50% inhibitory concentration (IC50) came to 20.99 mg/L.
For the compound `CO[C@H]1/C=C/O[C@@]2(C)Oc3c(C)c(O)c4c(O)c(c(/C=N/N5CCN(C)CC5)c(O)c4c3C2=O)NC(=O)/C(C)=C\C=C\[C@H](C)[C@H](O)[C@@H](C)[C@@H](O)[C@@H](C)[C@H](OC(C)=O)[C@@H]1C` [RIFAMPIN], in data set [6], the MIC was determined as 0.25 mg/L.
`Fc1ccc(C2=Nn3c(nnc3-c3ccccc3)SC2)cc1` gave an MIC in data set [6] of over 8 mg/L.
The compound `Fc1ccc(C2=Nn3c(Cc4ccc5ccccc5c4)nnc3SC2)cc1` gave an MIC in data set [6] of over 8 mg/L.
On the same count and under the same terms, to `O=[N+]([O-])c1ccc(C2=Nn3c(nnc3-c3ccc(Cl)cc3)SC2)cc1` belongs 8 mg/L.
`COc1ccc(C2=Nn3c(nnc3-c3ccc(Br)cc3)SC2)cc1` came in with an MIC in data set [6] of 8 mg/L.
With `Fc1ccc(C2=Nn3c(nnc3-c3ccncc3F)SC2)cc1`, the minimal inhibitory concentration (MIC) in data set [6] was over 8 mg/L.
Take `O=[N+]([O-])c1ccc(C2=Nn3c(nnc3-c3ccc(Br)cc3)SC2)cc1`: the IC50 in data set [1] was 10.4 µM; in data set [2], 13.9 µM; in data set [5], 86.39 mg/L. Besides, the values for the selectivity ratio in data set [3] and in data set [4] were 17.3 and 23.2, respectively. In data set [6], this compound had an MIC of 0.6 µM.
For the compound `Brc1ccc(OCc2nn3c(-c4ccc(Br)cc4)nnc3s2)cc1`, 0.5 mg/L was the least that counted as inhibitory in data set [6] (MIC).
For the compound `COc1ccc(-c2nnc3n2N=C(c2ccc([N+](=O)[O-])cc2)CS3)cc1`, in data set [6], the minimum inhibitory concentration (MIC) was over 8 mg/L.
Still for that read-out and setting: to `COc1ccc(C2=Nn3c(nnc3-c3ccc(Cl)cc3)SC2)cc1` belongs over 8 mg/L; to `COc1ccc(-c2nnc3n2N=C(c2ccc(F)cc2)CS3)cc1`, over 8 mg/L; to `NNC(=O)c1ccncc1` [ISONIAZID], 0.12 mg/L.
In the case of `COc1ccc(C2=Nn3c(nnc3-c3ccc(OC)cc3)SC2)cc1`, the MIC in data set [6] was over 8 mg/L.
On the same count and under the same terms, in the case of `Clc1ccc(-c2nnc3sc(COc4ccc(Br)cc4)nn23)cc1` it was 0.5 mg/L; in that of `COc1ccc(C2=Nn3c(Cc4ccc5ccccc5c4)nnc3SC2)cc1`, over 8 mg/L.
In the case of `c1ccc(C2=Nn3c(nnc3-c3ccccc3)SC2)cc1`, the IC50 in data set [5] amounted to 28.38 mg/L.
For `O=[N+]([O-])c1ccc(C2=Nn3c(nnc3-c3ccncc3F)SC2)cc1`, the concentration for half-maximal inhibition (IC50) in data set [1] is 166 µM; in data set [2], 355 µM; in data set [5], 73.57 mg/L. Further, the values for the selectivity ratio in data set [3] and in data set [4] were 59.2 and 127, respectively. In addition, the minimal inhibitory concentration (MIC) in data set [6] is 2.8 µM.
In the case of `Fc1ccc(C2=Nn3c(nnc3-c3ccc(Cl)cc3)SC2)cc1`, the minimal inhibitory concentration (MIC) in data set [6] was over 8 mg/L.
In data set [6], `Fc1ccc(C2=Nn3c(nnc3-c3ccc(Br)cc3)SC2)cc1` showed a minimum inhibitory concentration (MIC) of over 8 mg/L.
For `Clc1ccc(-c2nnc3n2N=C(c2ccccc2)CS3)cc1`, the minimum inhibitory concentration (MIC) in data set [6] was over 8 mg/L.
`COc1ccc(C2=Nn3c(nnc3-c3ccccc3)SC2)cc1` had an MIC in data set [6] of over 8 mg/L.
The compound `Fc1cnccc1-c1nnc2n1N=C(c1ccccc1)CS2` returned an MIC in data set [6] of over 8 mg/L.
